Consider twelve compounds from ChEMBL document CHEMBL4118186 (Bioorg Med Chem Lett, 2018).

Broadly, the IC50 is the concentration that inhibits the measured activity by half. The low end stands for greater potency in that assay, the high end for weaker potency in that assay.

Structures are written as SMILES.

Test system in one series: not listed separately
The series is described as follows: Metabolic stability in BALB/c mouse liver microsomes at 1 uM preincubated for 5 mins followed by NADP+ addition measured up to 40 mins by LC/MS method. Format: ADME, microsome. (Liver microsomes are a subcellular fraction often used to study metabolism.)
As for `CC(C)C[C@H](NC(=O)[C@H](Cc1ccccc1)NCc1ccccc1)B(O)O`, the Stability entry is reported as “Stable”.

Test system in another series: not listed separately
The series can be described thus: Metabolic stability in human liver microsomes at 1 uM preincubated for 5 mins followed by NADP+ addition measured up to 40 mins by LC/MS method. Format: ADME, microsome.
`CC(C)C[C@H](NC(=O)[C@H](Cc1ccccc1)NCc1ccccc1)B(O)O`: the Stability entry is “Stable”.

Another series addresses T1, Proteasome Macropain subunit MB1 (Homo sapiens, UniProt P28074).
T1 sequence (P28074 whole entry): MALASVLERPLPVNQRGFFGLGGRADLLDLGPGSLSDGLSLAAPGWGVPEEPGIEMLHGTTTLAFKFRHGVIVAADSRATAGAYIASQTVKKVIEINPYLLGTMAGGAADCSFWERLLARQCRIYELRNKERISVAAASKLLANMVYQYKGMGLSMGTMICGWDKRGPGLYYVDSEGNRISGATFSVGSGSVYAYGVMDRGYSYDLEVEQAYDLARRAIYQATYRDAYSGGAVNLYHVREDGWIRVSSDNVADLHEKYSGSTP
The series can be described thus: Inhibition of chymotrypsin-like activity of human 20S proteasome using Suc-Leu-Leu-Val-Tyr-AMC as substrate after 1 hr by fluorescence analysis.
For `CC(C)C[C@H](NC(=O)[C@H](Cc1ccccc1)OCc1cccc2ccccc12)B(O)O`, half-maximal inhibition (IC50) required 0.109 µM. In other words, the sub-micromolar range.
On the same count and under the same terms, then `CC(C)C[C@H](NC(=O)[C@H](Cc1ccccc1)OCc1ccccc1)B(O)O`, with 0.036 µM; and `CC(C)C[C@H](NC(=O)[C@H](Cc1ccccc1)NCc1cnccn1)B(O)O`, with 0.065 µM.
Same read-out and setting: the same measure for `CC(C)C[C@H](NC(=O)[C@H](Cc1ccccc1)NCc1ccccc1)B(O)O`: 0.0097 µM; for `CC(C)C[C@H](NC(=O)[C@H](Cc1ccccc1)Oc1cccc2ccccc12)B(O)O`: 0.275 µM; for `CC(C)C[C@H](NC(=O)[C@H](Cc1ccccc1)OCc1cnccn1)B(O)O`: 0.053 µM.
The compound `CC(C)C[C@H](NC(=O)[C@H](Cc1ccccc1)Oc1ccccc1)B(O)O` gave an IC50 of 0.126 µM. This IC50 is about 2.4-fold higher than that of the compound before.
Still for that read-out and setting: then `CC(C)C[C@H](NC(=O)[C@H](Cc1ccccc1)NCc1cccc2ccccc12)B(O)O`, with 0.092 µM.
`CC(C)C[C@H](NC(=O)[C@H](Cc1ccccc1)Nc1ccccc1)B(O)O` returned an IC50 of 0.335 µM.
Still for that read-out and setting: the same measure for `CC(C)C[C@H](NC(=O)[C@H](Cc1ccccc1)Oc1cnccn1)B(O)O`: 0.155 µM; for `CC(C)C[C@H](NC(=O)[C@H](Cc1ccccc1)Nc1cnccn1)B(O)O`: 0.192 µM; for `CC(C)C[C@H](NC(=O)[C@H](Cc1ccccc1)Nc1cccc2ccccc12)B(O)O`: 0.166 µM.
